Data published in ChEMBL document CHEMBL1155678, “Artoindonesianin C, a new xanthone derivative from Artocarpus teysmanii” (J Nat Prod, 2000).

Assays:
Bombyx mori = assay: Inhibition of leucine uptake in Bombyx mori larval midgut brush border membrane vesicles at 0.2 uM; format: functional
[1] = Toxicity against Artemia salina; format: organism-based; conditions: in vivo

C=C(C)c1cc2c(=O)c3c(O)cc4c(c3oc2c2c1C(O)(C(=O)OC)CC2=O)C=CC(C)(C)O4 (configuration not stated) [ARTOINDONESIANIN C]
inhibition (Bombyx mori): 20% | LC50 [1]: > 500 µg/mL
